Source: patent US11560372B2, “Heterocyclic compounds useful as modulators of acetylcholine receptors” (TAKEDA PHARMACEUTICAL COMPANY LIMITED, priority 2017, dated 2023)

Experiments:
[1] = target: T1, human M1 receptor (hCHRM1) (Homo sapiens, UniProt P11229); assay: Measurement of M1 receptor positive allosteric modulator (M1PAM) activity, calcium fluorescence in CHO-K1 cells; type: cell-based; conditions: for activity (%) at 10 μM: 10 μM test compound, 100% = acetylcholine final concentration 1 μM, 0% = DMSO; for EC50: inflection point of concentration-dependent curve, in the presence of acetylcholine at EC20 concentration (final 0.8-1.0 nM), read-out: IP value
T1 construct: expressed in transfected cells
T1 sequence (P11229 1-460): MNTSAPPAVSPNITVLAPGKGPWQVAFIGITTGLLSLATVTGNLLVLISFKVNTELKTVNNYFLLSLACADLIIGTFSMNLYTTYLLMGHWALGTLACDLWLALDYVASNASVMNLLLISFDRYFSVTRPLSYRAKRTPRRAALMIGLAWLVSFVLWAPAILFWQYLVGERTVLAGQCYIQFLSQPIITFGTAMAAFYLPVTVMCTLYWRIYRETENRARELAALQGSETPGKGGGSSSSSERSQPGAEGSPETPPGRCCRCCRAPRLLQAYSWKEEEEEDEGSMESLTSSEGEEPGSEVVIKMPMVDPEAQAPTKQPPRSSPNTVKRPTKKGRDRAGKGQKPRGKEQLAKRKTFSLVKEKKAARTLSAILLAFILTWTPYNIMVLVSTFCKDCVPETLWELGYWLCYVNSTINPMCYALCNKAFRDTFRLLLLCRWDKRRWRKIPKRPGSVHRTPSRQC
Description: Measurement of M1 Receptor Positive Allosteric Modulator (M1PAM) Activity
The activity of a test compound in the presence of acetylcholine at EC20 concentration (final concentration 0.8-1.0 nM), which affords an action corresponding to about 20% of the maximum activity, was measured as PAM activity. The method is as follows. CHO-K1 cells stably expressing a human M1 receptor (hCHRM1) were plated on a 384-well black clear bottom plate (BD Falcon) at 5,000 cells/well, and cultured in an incubator at 37° C., 5% CO2 for 1 day. The medium in the cell plate was removed, and assay buffer A containing calcium indicator (Recording medium (DOJINDO LABORATORIES), 0.1% BSA (Wako Pure Chemical Industries, Ltd.), 2.5 μg/mL Fluo-4 AM (DOJINDO LABORATORIES), 0.08% Pluronic F127 (DOJINDO LABORATORIES), 1.25 mM probenecid (DOJINDO LABORATORIES)) was added at 30 μL/well. The cells were left standing in the incubator at 37° C., 5% CO2 for 30 min, and further left standing at room temperature for 30 min. A test compound prepared by diluting with assay buffer B (HBSS (Invitrogen), 20 mM HEPES (Invitrogen), 0.1% BSA) containing 3.2-4.0 nM acetylcholine was added at 10 μL/well, and the fluorescence was measured by FDSS/pCELL (Hamamatsu Photonics K.K.) for 1 min every for 1 second. With the definition that the amount of change in the fluorescence on addition of acetylcholine (final concentration 1 μM) is 100% and that on addition of DMSO instead of a test compound is 0%, the activity (%) of the test compound was calculated, and the inflection point in the concentration-dependent curve of the test compound was calculated as IP values.

[2] = target: T2, MDR1 (Homo sapiens, UniProt P08183); assay: MDR1 membrane permeability test; type: in vitro ADME; conditions: pH 7.4, efflux ratio (ER), Papp B to A / A to B, human MDR1-expressing LLC-PK1 cells, read-out: MDR1 substrate screening 1 μM (MDRSUB1)/Ratio (NUMBER)
T2 construct: expressed in transfected cells
T2 sequence (P08183 whole entry): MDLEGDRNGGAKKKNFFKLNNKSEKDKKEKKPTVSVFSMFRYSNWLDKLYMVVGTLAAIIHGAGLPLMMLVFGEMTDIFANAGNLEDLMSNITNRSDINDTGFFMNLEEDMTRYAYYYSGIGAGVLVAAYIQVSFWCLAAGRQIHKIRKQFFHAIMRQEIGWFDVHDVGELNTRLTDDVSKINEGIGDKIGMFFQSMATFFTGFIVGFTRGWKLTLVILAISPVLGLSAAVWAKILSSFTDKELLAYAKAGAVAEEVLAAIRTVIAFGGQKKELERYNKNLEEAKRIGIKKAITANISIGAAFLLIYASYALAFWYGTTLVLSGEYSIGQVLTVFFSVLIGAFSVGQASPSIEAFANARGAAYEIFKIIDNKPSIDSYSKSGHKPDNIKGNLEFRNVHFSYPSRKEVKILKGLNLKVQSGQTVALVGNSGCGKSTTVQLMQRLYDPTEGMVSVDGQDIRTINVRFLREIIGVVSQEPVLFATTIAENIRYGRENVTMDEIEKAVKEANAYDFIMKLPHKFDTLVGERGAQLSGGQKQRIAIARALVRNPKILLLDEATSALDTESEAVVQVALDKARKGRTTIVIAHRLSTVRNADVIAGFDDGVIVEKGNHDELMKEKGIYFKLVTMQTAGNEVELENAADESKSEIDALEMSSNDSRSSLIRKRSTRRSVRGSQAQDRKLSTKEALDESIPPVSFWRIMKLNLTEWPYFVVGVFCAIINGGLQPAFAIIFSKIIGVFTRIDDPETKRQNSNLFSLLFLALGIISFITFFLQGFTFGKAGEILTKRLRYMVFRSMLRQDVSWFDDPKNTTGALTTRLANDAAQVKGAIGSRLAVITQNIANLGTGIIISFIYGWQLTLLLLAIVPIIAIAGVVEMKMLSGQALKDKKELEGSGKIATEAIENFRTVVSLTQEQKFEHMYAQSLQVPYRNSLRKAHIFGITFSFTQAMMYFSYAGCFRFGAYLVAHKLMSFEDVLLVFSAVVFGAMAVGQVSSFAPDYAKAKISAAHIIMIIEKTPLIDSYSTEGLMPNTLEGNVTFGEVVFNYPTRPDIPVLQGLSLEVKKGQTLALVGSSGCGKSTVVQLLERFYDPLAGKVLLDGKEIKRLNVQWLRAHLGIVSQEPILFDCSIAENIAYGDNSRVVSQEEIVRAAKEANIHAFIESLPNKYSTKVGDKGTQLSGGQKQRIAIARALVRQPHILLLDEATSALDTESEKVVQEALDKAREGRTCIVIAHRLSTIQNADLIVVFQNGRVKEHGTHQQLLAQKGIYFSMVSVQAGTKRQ
Description: MDR1 Membrane Permeability Test
When MDR1 is expressed in excess in LLC-PK1 cell, which is a polar cell, MDR1 is localized in apical membrane (A), thus promoting transcellular transport from the basement membrane side (B) toward direction A. When a ratio to the transcellular transport in the opposite direction is taken and a ratio to a control cell in which a mock vector has been introduced is further taken, an efflux ratio of MDR1 to simple diffusion (corrected efflux ratio) is calculated. Similarly, when a brain/plasma concentration ratio in Mdr1(−/−) mouse is divided by a brain/plasma concentration ratio in wild-type mouse, an efflux ratio of Mdr1 to simple diffusion in BBB (Kp, brain ratio, higher value means lower central nervous system permeability) is calculated. Adachi Y. et al. (Reference 1) has reported a positive correlation between corrected efflux ratio and Kp, brain ratio (FIG. 5(C)), and efflux ratio in MDR1 expressing cell and Kp, brain ratio (FIG. 5(B)).
To confirm the central nervous system permeability of the compounds of the present invention, a MDR1 membrane permeability test was performed by the following method.
Human MDR1-expressing LLC-PK1 cells were cultured according to the report of Takeuchi et al. (Reference 2). Human MDR1-expressing LLC-PK1 cells were cultured in 10% fetal bovine serum (Invitrogen), 500 μg/ml G418 (Invitrogen), 150 ng/ml colchicine-containing M199 medium (Invitrogen) under 5% CO2 conditions at 37° C.
Transcellular transport was performed according to the report of Sugimoto et al. (Reference 3). The cells were cultured for 3 days on HTS Transwell (registered trademark) 96 well permeable support (pore size 0.4 μm, 0.143 cm^2 surface area, Corning Life Sciences) having polyethylene terephthalate membrane on which the cells had been seeded at 3.45×10^4 cells/well. After preincubation in M199 medium (containing 10 mmol/L HEPES, 1% BSA, pH 7.4) for 30 min, a drug solution (10 μmol/L digoxin, 200 μmol/L LY, […]) dissolved in M199 medium was added to the apical side or basolateral side of the Transwell by 75 or 250 μL each and the cells were cultured under 5% CO2 conditions at 37° C. After 1 hr, the sample was collected from the side opposite to the side where the drug solution was added, and the concentration of the test compound was measured by LC-MS/MS. As an internal standard substance, 100 ng/mL alprenolol and diclofenac were used. The analysis conditions were as follows.
Papp, A to B and Papp, B to A (apparent permeability) were calculated from the formula (1), and the efflux ratio (ER) was calculated from the formula (2).

Structure (SMILES)	activity (%) at 10 μM [1] [%]	EC50 [1] [nM]	efflux ratio at 1 hr, 1 μM [2]
Cc1c(Cc2ccc(-c3ccn(C)n3)nc2)cc2c(=O)n([C@H]3CCOC[C@@H]3O)cnc2c1C [Example 1, 1,5-anhydro-2,3-dideoxy-3-(7,8-dimethyl-6-((6-(1-methyl-1H-pyrazol-3-yl)pyridin-3-yl)methyl)-4-oxoquinazolin-3(4H)-yl)-L-threo-pentitol]	101	2.1	4.7
Cc1cc(-c2ccc(Cc3cc4c(=O)n([C@H]5CCOC[C@@H]5O)cnc4c(C)c3C)cc2)cnn1 [Example 4, 1,5-anhydro-2,3-dideoxy-3-(7,8-dimethyl-6-(4-(6-methylpyridazin-4-yl)benzyl)-4.-oxoquinazolin-3(4H)-yl)-L-threo-pentitol]	101	2	5.7
Cc1c(Cc2ccc(-c3cn(C)nn3)cc2)cc2c(=O)n([C@H]3CCOC[C@@H]3O)cnc2c1C [Example 8, 1,5-anhydro-2,3-dideoxy-3-(7,8-dimethyl-6-(4-(1-methyl-1H-1,2,3-triazol-4-yl)benzyl)-4-oxoquinazolin-3(4H)-yl)-L-threo-pentitol]	97	1.4	4.8
Cc1c(Cc2ccc(-c3cnn(C)c3)cc2)cc2c(=O)n([C@H]3CCOC[C@@H]3O)cnc2c1C [Example 9, 1,5-anhydro-2,3-dideoxy-3-(7,8-dimethyl-6-(4-(1-methyl-1H-pyrazol-4-yl)benzyl)-4-oxoquinazolin-3(4H)-yl)-L-threo-pentitol]	109	3.3	2.1
Cc1c(Cc2ccc(-c3cnn(C)c3)nc2)cc2c(=O)n([C@H]3CCOC[C@@H]3O)cnc2c1Cl [Example 11, 1,5-anhydro-3-(8-chloro-7-methyl-6-((6-(1-methyl-1H-pyrazol-4-yl)pyridin-3-yl)methyl)-4-oxoquinazolin-3(4H)-yl)-2,3-dideoxy-L-threo-pentitol]	100	0.91	17
Cc1c(Cc2ccc(-c3ccn(C)n3)nc2)cc2c(=O)n([C@H]3CCOC[C@@H]3O)cnc2c1Cl [Example 13, 1,5-anhydro-3-(8-chloro-7-methyl-6-((6-(1-methyl-1H-pyrazol-3-yl)pyridin-3-yl)methyl)-4-oxoquinazolin-3(4H)-yl)-2,3-dideoxy-L-threo-pentitol]	101	1	38
CNC(=O)c1ccc(Cc2cc3c(=O)n([C@H]4CCOC[C@@H]4O)cnc3c(C)c2C)cc1 [Example 18, 1,5-anhydro-2,3-dideoxy-3-(7,8-dimethyl-6-(4-(methylcarbamoyl)benzyl)-4-oxoquinazolin-3(4H)-yl)-L-threo-pentitol]	106	1	24
Cc1c(Cc2ccc(-c3cnn(C)c3)cc2)cc2c(=O)n([C@H]3CCOC[C@@H]3O)cnc2c1F [Example 24, 1,5-anhydro-2,3-dideoxy-3-(8-fluoro-7-methyl-6-(4-(1-methyl-1H-pyrazol-4-yl)benzyl)-4-oxoquinazolin-3(4H)-yl)-L-threo-pentitol]	108	3.7	3.4
Cc1c(Cc2ccc(C(=O)NC3CC(F)(F)C3)cc2)cc2c(=O)n([C@H]3CCOC[C@@H]3O)cnc2c1C [Example 25, 1,5-anhydro-2,3-dideoxy-3-(6-(4-((3,3-difluorocyclobutyl)-carbamoyl)benzyl)-7,8-dimethyl-4-oxoquinazolin-3(4H)-yl)-L-threo-pentitol]	109	1.9	16
Cc1c(Cc2ccc(C(=O)NC3COC3)cc2)cc2c(=O)n([C@H]3CCOC[C@@H]3O)cnc2c1C [Example 27, 1,5-anhydro-2,3-dideoxy-3-(7,8-dimethyl-6-(4-(oxetan-3-ylcarbamoyl)benzyl)-4-oxoquinazolin-3(4H)-yl)-L-threo-pentitol]	110	1.4	23
Cc1c(Cc2ccc(C(=O)NCC3CC3)cc2)cc2c(=O)n([C@H]3CCOC[C@@H]3O)cnc2c1C [Example 29, 1,5-anhydro-3-(6-(4-((cyclopropylmethyl)carbamoyl)-benzyl)-7,8-dimethyl-4-oxoquinazolin-3 (4H)-yl)-2,3-dideoxy-L-threo-pentitol]	112	1.6	12
Cc1c(Cc2ccc(C(=O)NC3CCOC3)cc2)cc2c(=O)n([C@H]3CCOC[C@@H]3O)cnc2c1C (stereo partly drawn) [Example 33, 1,5-anhydro-2,3-dideoxy-3-(7,8-dimethyl-4-oxo-6-(4-(tetrahydrofuran-3-ylcarbamoyl)benzyl)quinazolin-3 (4H)-yl)-L-threo-pentitol]	111	1.8	20
Cc1c(Cc2ccc(C(=O)NCC(C)(C)O)cc2)cc2c(=O)n([C@H]3CCOC[C@@H]3O)cnc2c1C [Example 39, 1,5-anhydro-2,3-dideoxy-3-(6-(4-((2-hydroxy-2-methylpropyl)carbamoyl)benzyl)-7,8-dimethyl-4-oxoquinazolin-3 (4H)-yl)-L-threo-pentitol]	112	3.3	–
Cc1c(Cc2ccc(C(=O)NC3(C#N)CC3)c(F)c2)cc2c(=O)n([C@H]3CCOC[C@@H]3O)cnc2c1C [Example 89, 1,5-anhydro-3-(6-(4-((1-cyanocyclopropyl)carbamoyl)-3-fluorobenzyl)-7,8-dimethyl-4-oxoquinazolin-3 (4H)-yl)-2,3-dideoxy-L-threo-pentitol]	–	–	16
CNC(=O)c1ccc(Cc2cc3c(=O)n([C@H]4CCOC[C@@H]4O)nnc3c(C)c2C)cn1 [Example 91, 1,5-anhydro-2,3-dideoxy-3-(7,8-dimethyl-6-((6-(methylcarbamoyl)pyridin-3-yl)methyl)-4-oxo-1,2,3-benzotriazin-3 (4H)-yl)-L-threo-pentitol]	–	–	5.9
